Measurements published in PubChem BioAssay AID1918933 (Molecular Pharmacology Branch, DTP, NCI, 2023).

Tested on: 186277-243-T-J2-PDC complex spheroid viability
Assay: Anticancer human tumor 186277-243-T-J2-PDC patient-derived colon adenocarcinoma cell line growth inhibition
Conditions: for IC50: curve of first compound; for viability, T/C: stronger effect = lower value
Description: Multicellular complex tumor spheroid response to LSD1 Inhibitor Iadademstat in combination with a variety of drugs and investigational agents in selected tumor cell lines
The current study was undertaken to assess response to LSD1 inhibitors in combination with standard-of-care drugs and investigational agents in solid tumor complex spheroid models as well as in the K-562 leukemia. Complex spheroids include a stromal component modeled by human endothelial cells (HUVEC) and fibroblasts modeled by human mesenchymal stem cells (MSCs). The concentration ranges selected for each drug and investigational agent were based upon clinically achievable concentrations if the clinical Cmax of the agent was known.
Compounds. The drugs and investigational agents used in this study are listed on Table 1. All of the agents used, including staurosporine (NSC755774) and gemcitabine (NSC613327), were obtained from the Developmental Therapeutics Program, NCI. FDA-approved anticancer drugs are available from the NCI at http://dtp.nci.nih.gov/branches/dscb/oncology_drugset_explanation.html. Drugs and investigational agents were >95% pure by proton nuclear magnetic resonance (NMR) and liquid chromatography/mass spectrometry (LC/MS). Stock solutions were prepared at 400x in DMSO, stored at -70 degrees C, and diluted in fresh medium prior to their use. The final concentration of DMSO in cell culture wells never exceeded 0.25% (v/v). The FDA-approved anticancer drug set is available from the Developmental Therapeutics Program at https://dtp.cancer.gov/organization/dscb/obtaining/available_plates.htm. All drugs and investigational agents were tested over a range starting from a high concentration at or near the clinical Cmax and decreasing in half-log increments. If the clinical Cmax for an agent had not been determined, the highest concentration tested was 10 microM.
Cell Lines. The patient-derived cancer cell (PDC) lines: 292921-168-R-J2-PDC, K24384-001-R-PDC, and 521955-158-R2-J5-PDC pancreatic carcinomas, 556581-035-R-J1 ovarian carcinoma, 324938-238-R-J1-PDC, 855422-203-R-J1-PDC and 883617-216-R-J1-PDC urothelial bladder carcinomas, 743489-274-T-PDC renal cell carcinoma, 138582-R-J1 Merkel cell tumor, K60290-347-R-J1 and K57222-313-R-J1-PDC glioblastomas, 653999-131-R-J2-PDC, LG0703-F948-PDC, and 349418-098-R-PDC non-small cell lung carcinomas, 885512-296-R-J2-PDC, 171881-019-R-J1-PDC breast carcinomas and 186277-243-T-J2-PDC and 233499-124-R-J2-PDC colon carcinomas were obtained from the NCI Patient-Derived Models Repository (PDMR, https://pdmr.cancer.gov). The established cell lines NCI/ADR-RES (RRID:CVCL_14520 and OVCAR-5 (RRID:CVCL_1628) ovarian carcinomas, 786-O (RRID:CVCL_1051) and A498 (RRID:CVCL_A498) renal cell carcinoma, NCI-H211 (ATCC, cat. CRL-5824; RRID:CVCL_1529), NCI-H196 (ATCC, cat. CRL-5823, RRID:CVCL_1509), SW 1271 (ATCC, cat. CRL-2177, RRID:CVCL_1716) and NCI-H1876 (ATCC, cat. CRL-5902, RRID:CVCL_1503) small cell lung carcinomas, MDA-MB-231 (RRID:CVCL_0062) and MDA-MB-468 (RRID:CVCL_0419)breast carcinomas (10-12). Pooled donor human umbilical vein endothelial cells (HUVEC, Lonza, cat. CC-2519) and human mesenchymal stem cells (hMSC, Lonza, cat. PT-2501) were purchased from Lonza (Walkersville, MD).
Cell Culture. All cells were maintained in an incubator at 37 degrees C and 5% CO2 with 95% humidity. The PDC lines were cultured according to standard operating procedures established by the NCI PDMR (https://pdmr.cancer.gov). Briefly all PDCs were thawed and cultured in Matrigel-coated flasks prepared with a working solution of 1X Ham's F-12 nutrient mix, without supplementation (Invitrogen, Waltham, MA, cat. 11765054), 100 U/mL penicillin-streptomycin (Invitrogen, cat. 15140122), and 2.5% Matrigel (Corning Inc., Corning, NY, cat. 354248) for the first three passages. […]

[1] = second compound 0.1 µM, first compound 0.00316 µM
[2] = second compound 0.1 µM, first compound 0.01 µM
[3] = second compound 0.1 µM, first compound 0.0316 µM
[4] = second compound 0.1 µM, first compound 0.1 µM
[5] = second compound 0.316 µM, first compound 0.00316 µM
[6] = second compound 0.316 µM, first compound 0.01 µM
[7] = second compound 0.316 µM, first compound 0.0316 µM
[8] = second compound 0.316 µM, first compound 0.1 µM
[9] = second compound 1 µM, first compound 0.00316 µM
[10] = second compound 1 µM, first compound 0.01 µM
[11] = second compound 1 µM, first compound 0.0316 µM
[12] = second compound 1 µM, first compound 0.1 µM
[13] = second compound 3.16 µM, first compound 0.00316 µM
[14] = second compound 3.16 µM, first compound 0.01 µM
[15] = second compound 3.16 µM, first compound 0.0316 µM
[16] = second compound 3.16 µM, first compound 0.1 µM
[17] = second compound 10 µM, first compound 0.00316 µM
[18] = second compound 10 µM, first compound 0.01 µM
[19] = second compound 10 µM, first compound 0.0316 µM
[20] = second compound 10 µM, first compound 0.1 µM
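Note: 7 day exposure to compounds.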
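Throughout, for viability, T/C: 100% = DMSO vehicle control viability.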

Structure (SMILES) | IC50 (second compound 0.1 µM) [nM] | IC50 (second compound 0.316 µM) [nM] | IC50 (second compound 1 µM) [nM] | IC50 (second compound 3.16 µM) [nM] | IC50 (second compound 10 µM) [nM] | viability, T/C [1] [%] | viability, T/C [2] [%] | viability, T/C [3] [%] | viability, T/C [4] [%] | viability, T/C [5] [%] | viability, T/C [6] [%] | viability, T/C [7] [%] | viability, T/C [8] [%] | viability, T/C [9] [%] | viability, T/C [10] [%] | viability, T/C [11] [%] | viability, T/C [12] [%] | viability, T/C [13] [%] | viability, T/C [14] [%] | viability, T/C [15] [%] | also measured
CC(C)CC(NC(=O)C(Cc1ccccc1)NC(=O)c1cnccn1)B(O)O (stereo not given) + NC1CC1c1ccc(-c2cccc(O)c2)cc1 | 0.601 | 0.547 | 0.548 | 0.57 | 0.557 | 0.06 | 0.02 | 0.02 | 0.12 | 0.04 | 0.01 | 0.37 | 0.1 | 0.05 | 0.02 | 0.07 | 0.1 | 0.06 | 0.02 | 0.64 | viability, T/C (second compound 0.1 µM, first compound 0.000316 µM): 108%; viability, T/C (second compound 0.1 µM, first compound 0.001 µM): 3.98%; viability, T/C (second compound 0.316 µM, first compound 0.000316 µM): 94.1%; viability, T/C (second compound 0.316 µM, first compound 0.001 µM): 1.53%; viability, T/C (second compound 1 µM, first compound 0.000316 µM): 94.3%; viability, T/C (second compound 1 µM, first compound 0.001 µM): 1.48%; viability, T/C (second compound 3.16 µM, first compound 0.000316 µM): 101%; viability, T/C (second compound 3.16 µM, first compound 0.001 µM): 1.66%; viability, T/C [16]: 0.74%; viability, T/C (second compound 10 µM, first compound 0.000316 µM): 97.9%; viability, T/C (second compound 10 µM, first compound 0.001 µM): 0.65%; viability, T/C [17]: 0.13%; viability, T/C [18]: 0.2%; viability, T/C [19]: 0.13%; viability, T/C [20]: 0.89%
COc1cc(Nc2ncc3c(n2)-c2ccc(Cl)cc2C(c2c(F)cccc2OC)=NC3)ccc1C(=O)O + NC1CCC(NC2CC2c2ccccc2)CC1 | 13 | 11.2 | 10.4 | 10.6 | 13.7 | 131 | 59.2 | 19.2 | 0.36 | 119 | 54.1 | 11.7 | 0.19 | 109 | 51.1 | 11.3 | 0.14 | 120 | 51.8 | 13.2 | viability, T/C (second compound 0.1 µM, first compound 0.316 µM): 0.06%; viability, T/C (second compound 0.1 µM, first compound 1 µM): 0.02%; viability, T/C (second compound 0.316 µM, first compound 0.316 µM): 0.05%; viability, T/C (second compound 0.316 µM, first compound 1 µM): 0.01%; viability, T/C (second compound 1 µM, first compound 0.316 µM): 0.02%; viability, T/C (second compound 1 µM, first compound 1 µM): 0.01%; viability, T/C [16]: 0.12%; viability, T/C (second compound 3.16 µM, first compound 0.316 µM): 0.04%; viability, T/C (second compound 3.16 µM, first compound 1 µM): 0.01%; viability, T/C [17]: 128%; viability, T/C [18]: 58.6%; viability, T/C [19]: 27.7%; viability, T/C [20]: 0.81%; viability, T/C (second compound 10 µM, first compound 0.316 µM): 0.06%; viability, T/C (second compound 10 µM, first compound 1 µM): 0.02%
